Measurements taken from US20240041971A1, “A PROCESS OF PREPARATION OF FLOUR MIX AND ITS USE FOR THE TREATMENT OF DIABETES” (priority 2020, published 2024).

Tests used:
Assay type in all cases: in vivo, Rats
[1] = system: Streptozotocin-nicotinamide induced Type-2 diabetes (T2DM); experiment: Streptozotocin-nicotinamide induced Type-2 diabetes: Glycosylated Haemoglobin (HbA1c); conditions: 5 mg/kg oral gavage
Description: (§1) The objective of the study is to evaluate pharmaceutical preparation in Type-2 diabetes mellitus (T2DM) and to compare efficacy of these in comparison to standard hypoglycemic agent pioglitazone.
(§2) Experimental model: Streptozotocin-nicotinamide induced Type-2 diabetes (T2DM): Single intraperitoneal injection of nicotinamide and streptozotocin was administered. Dose: STZ (45 mg/kg for rats)+Nicotinamide (230 mg/kg for rats) for T2DM pharmaceutical preparation (45.90 & 180 mg/kg). Route: STZ & Nicotinamide were administered intraperitoneally (i.p.). Pharmaceutical preparation & pioglitazone were administered per orally (oral gavage). Volume Administered: Rat—5 mL/kg Animals: Rats of Wistar strain weighing from 150-200 g of either sex used for the study. The animals were housed under optimal laboratory conditions, maintained on a natural (12 h) light and (12 h) dark cycle and had free access to food and water ad libitum. Animals were acclimatized to laboratory conditions before the tests. Study Design: Animals were divided into 6 groups of 5-8 animals in each group: • a) Group I: Control or vehicle treated group • b) Group II: Type 2 diabetic group • c) Group III: Diabetic animals+pharmaceutical preparation (45 mg/kg) • d) Group IV: Diabetic animals+pharmaceutical preparation (90 mg/kg) • e) Group V: Diabetic animals +pharmaceutical preparation (180 mg/kg) • f) Group VI: Diabetic animals+Pioglitazone (5 mg/kg)
(§3) Pharmaceutical preparation was administered after confirmation of diabetes for 28 days.
(§4) Parameters to be evaluated: The following parameters were evaluated after confirmation of diabetes on day 1, 7, 14, 21 and 28 days. • a) Body weight, water and food intake was monitored. • b) Blood Glucose Level: Glucose was estimated using diagnostic kits by GOD-POD method and the experiment was conducted following the manufacturer's instructions. • c) Estimation of Glycosylated Haemoglobin (HbA1c): HbA1c is a good indicator of protein glycosylation. Excess of glucose conjugates with proteins to form glycosylated moieties. It was estimated by ion-resin method using commercial kits.

[2] = system: Streptozotocin-nicotinamide induced Type-2 diabetes (T2DM); experiment: Streptozotocin-nicotinamide induced Type-2 diabetes: plasma glucose; conditions: 5 mg/kg oral gavage
Description: as §1, §2, §3
as §4, with “[…])” for “following parameters were evaluated after confirmation of diabetes on day 1, 7, 14, 21 and 28 days. • a)”

[3] = system: Streptozotocin (STZ) induced type 1 diabetes (T1DM); experiment: Oral Glucose Tolerance Test (OGTT) in STZ induced type 1 diabetes; conditions: 10 IU/kg subcutaneous
Description: The objective of the study is to evaluate the pharmaceutical preparation in Type-1 Diabetes Mellitus (T1DM) and to compare the efficacy in comparison to standard hypoglycemic agents as insulin. Experimental model: Streptozotocin (STZ) induced type 1 diabetes (T1DM). Dose: STZ (45 mg/kg for rats) for T1DM Route: STZ was administered intraperitoneally (i.p.). Pharmaceutical preparation was administered peroral (p.o.) in three doses. Animals: Rats of Wistar or Sprague Dawley strain weighing from 150-200 g of either sex. The animals were housed under optimal laboratory conditions, maintained on a natural (12 h) light and (12 h) dark cycle and have free access to food and water ad libitum. Animals were acclimatized to laboratory conditions before the tests. Study Design: Animals were divided into 8 groups of 10 animals in each group. • a) Group I: Control or vehicle treated group • b) Group II: Type 1 diabetic group • c) Group III: pharmaceutical preparation (90 mg/kg)+Diabetic animals • d) Group IV: pharmaceutical preparation (180 mg/kg)+Diabetic animals • e) Group V: pharmaceutical preparation (360 mg/kg)+Diabetic animals • f) Group VI: Satcol (60 mg/kg)+Diabetic animals • g) Group VII: pharmaceutical preparation (90 mg/kg)+Insulin (10IU)+Diabetic animals • h) Group VIII: Insulin (10IU)+Diabetic animals Drugs were administered for 28 days after confirmation of diabetes. Parameters to be evaluated: The following parameters were evaluated at confirmation of diabetes and after 28 days of treatment. • a) Body weight, water and food intake was monitored weekly. • b) Blood Glucose Level: Glucose was estimated using diagnostic kits by GOD-POD method and the experiment was conducted following the manufacturer's instructions. • c) Oral Glucose Tolerance Test (OGTT): An oral glucose tolerance test was carried out in conscious rats. For this the rats was fasted overnight and glucose (2 g/kg b.w.) was given from 30% solution by oral gavage. […] for glucose. • d) Measurement of Plasma Insulin Level: Insulin was estimated using insulin ELISA kit (LINCO) and the experiment was conducted following the manufacturer's instructions. It is a solid phase sandwich enzyme-linked immunosorbent assay (ELISA), which uses a microtitre plate reader at 450 nm. Concentrations of insulin were calculated from plotted standard curves. All results were expressed as Mean±SEM. The intergroup variation was measured by one-way analysis of variance (ANOVA) followed by Tukey's test. Statistical significance was considered at P<0.05. The statistical analysis was done using the SPSS Statistical Software version 16 (SPSS Inc. 233 South Wacker Drive, 11th Floor Chicago, IL 60606-6412).

[4] = system: Streptozotocin (STZ) induced type 1 diabetes (T1DM); experiment: Streptozotocin (STZ) induced type 1 diabetes: plasma glucose, body weight, food intake, water intake, urine output; conditions: 10 IU/kg subcutaneous
Description: The objective of the study is to evaluate the pharmaceutical preparation in Type-1 Diabetes Mellitus (T1DM) and to compare the efficacy in comparison to standard hypoglycemic agents as insulin. Experimental model: Streptozotocin (STZ) induced type 1 diabetes (T1DM). Dose: STZ (45 mg/kg for rats) for T1DM Route: STZ was administered intraperitoneally (i.p.). Pharmaceutical preparation was administered peroral (p.o.) in three doses. Volume Administered: Rat—5 ml/kg Animals: Rats of Wistar or Sprague Dawley strain weighing from 150-200 g of either sex. The animals were housed under optimal laboratory conditions, maintained on a natural (12 h) light and (12 h) dark cycle and have free access to food and water ad libitum. Animals were acclimatized to laboratory conditions before the tests. […] Parameters to be evaluated: The following parameters were evaluated at confirmation of diabetes and after 28 days of treatment. • a) Body weight, water and food intake was monitored weekly. • b) Blood Glucose Level: Glucose was estimated using diagnostic kits by GOD-POD method and the experiment was conducted following the manufacturer's instructions. • c) Oral Glucose Tolerance Test (OGTT): An oral glucose tolerance test was carried out in conscious rats. For this the rats was fasted overnight and glucose (2 g/kg b.w.) was given from 30% solution by oral gavage. Tail blood samples was collected before glucose load and sequentially for every half an hour after glucose load upto 90 minutes and was immediately analysed for glucose. • d) Measurement of Plasma Insulin Level: Insulin was estimated using insulin ELISA kit (LINCO) and the experiment was conducted following the manufacturer's instructions. It is a solid phase sandwich enzyme-linked immunosorbent assay (ELISA), which uses a microtitre plate reader at 450 nm. Concentrations of insulin were calculated from plotted standard curves. All results were expressed as Mean±SEM. The intergroup variation was measured by one-way analysis of variance (ANOVA) followed by Tukey's test. Statistical significance was considered at P<0.05. The statistical analysis was done using the SPSS Statistical Software version 16 (SPSS Inc. 233 South Wacker Drive, 11th Floor Chicago, IL 60606-6412).

[5] = system: Streptozotocin (STZ) induced type 1 diabetes (T1DM); experiment: Plasma insulin level (ELISA) in STZ induced type 1 diabetes; conditions: 10 IU/kg subcutaneous
Description: The objective of the study is to evaluate the pharmaceutical preparation in Type-1 Diabetes Mellitus (T1DM) and to compare the efficacy in comparison to standard hypoglycemic agents as insulin. Experimental model: Streptozotocin (STZ) induced type 1 diabetes (T1DM). Dose: STZ (45 mg/kg for rats) for T1DM Route: STZ was administered intraperitoneally (i.p.). Pharmaceutical preparation was administered peroral (p.o.) in three doses. Animals: Rats of Wistar or Sprague Dawley strain weighing from 150-200 g of either sex. The animals were housed under optimal laboratory conditions, maintained on a natural (12 h) light and (12 h) dark cycle and have free access to food and water ad libitum. Animals were acclimatized to laboratory conditions before the tests. Study Design: Animals were divided into 8 groups of 10 animals in each group. • a) Group I: Control or vehicle treated group • b) Group II: Type 1 diabetic group • c) Group III: pharmaceutical preparation (90 mg/kg)+Diabetic animals • d) Group IV: pharmaceutical preparation (180 mg/kg)+Diabetic animals • e) Group V: pharmaceutical preparation (360 mg/kg)+Diabetic animals • f) Group VI: Satcol (60 mg/kg)+Diabetic animals • g) Group VII: pharmaceutical preparation (90 mg/kg)+Insulin (10IU)+Diabetic animals • h) Group VIII: Insulin (10IU)+Diabetic animals Drugs were administered for 28 days after confirmation of diabetes. Parameters to be evaluated: […]) Body weight, water and food intake was monitored weekly. • b) Blood Glucose Level: Glucose was estimated using diagnostic kits by GOD-POD method and the experiment was conducted following the manufacturer's instructions. • c) Oral Glucose Tolerance Test (OGTT): An oral glucose tolerance test was carried out in conscious rats. For this the rats was fasted overnight and glucose (2 g/kg b.w.) was given from 30% solution by oral gavage. Tail blood samples was collected before glucose load and sequentially for every half an hour after glucose load upto 90 minutes and was immediately analysed for glucose. • d) Measurement of Plasma Insulin Level: Insulin was estimated using insulin ELISA kit (LINCO) and the experiment was conducted following the manufacturer's instructions. It is a solid phase sandwich enzyme-linked immunosorbent assay (ELISA), which uses a microtitre plate reader at 450 nm. Concentrations of insulin were calculated from plotted standard curves. All results were expressed as Mean±SEM. The intergroup variation was measured by one-way analysis of variance (ANOVA) followed by Tukey's test. Statistical significance was considered at P<0.05. The statistical analysis was done using the SPSS Statistical Software version 16 (SPSS Inc. 233 South Wacker Drive, 11th Floor Chicago, IL 60606-6412).

## CCc1ccc(CCOc2ccc(CC3SC(=O)NC3=O)cc2)nc1 (stereo not drawn) [Pio, Pioglitazone]
[1]; Day 1
  Glycosylated Hemoglobin: 6.66
[1]; Day 7
  Glycosylated Hemoglobin: 10.78
[1]; Day 14
  Glycosylated Hemoglobin: 9.67
[1]; Day 21
  Glycosylated Hemoglobin: 8.44
[1]; Day 28
  Glycosylated Hemoglobin: 7.96
[2]; Day 3
  Mean Plasma Glucose: 144 mg/dL
[2]; Day 7
  Mean Plasma Glucose: 149 mg/dL
[2]; Day 14
  Mean Plasma Glucose: 141 mg/dL
[2]; Day 21
  Mean Plasma Glucose: 132 mg/dL
[2]; Day 28
  Mean Plasma Glucose: 126 mg/dL

## Insulin
[3]; 0.5 hour
  OGTT Mean Plasma Glucose: 389 ± 95.77 mg/dL
[3]; 2.0 hour
  OGTT Mean Plasma Glucose: 315 ± 102.13 mg/dL
[3]; 4.0 hour
  OGTT Mean Plasma Glucose: 311 ± 217.52 mg/dL
[3]; 8.0 hour
  OGTT Mean Plasma Glucose: 233 ± 29.73 mg/dL
[4]; 6th Week
  Mean Plasma Glucose: 226 ± 12.4 mg/dL
[4]; 10th Week
  Mean Plasma Glucose: 233 ± 16.0 mg/dL
[4]; Day 1
  Food Intake: 21 ± 0.66 gm
  Mean Body Weight: 278 ± 3.7 gm
  Mean Plasma Glucose: 352 ± 42.4 mg/dL
  Urine Volume: 9 ± 0.63 mL
  Water Intake: 9 ± 0.95 mL
[4]; Day 7
  Food Intake: 23 ± 0.43 gm
  Mean Body Weight: 277 ± 4.4 gm
  Mean Plasma Glucose: 249 ± 5.7 mg/dL
  Urine Volume: 16 ± 1.91 mL
  Water Intake: 14 ± 0.85 mL
[4]; Day 14
  Food Intake: 27 ± 0.58 gm
  Mean Body Weight: 280 ± 3.9 gm
  Mean Plasma Glucose: 222 ± 14.1 mg/dL
  Water Intake: 20 ± 0.86 mL
[4]; Day 21
  Food Intake: 30 ± 0.56 gm
  Mean Body Weight: 279 ± 4.5 gm
  Mean Plasma Glucose: 233 ± 13.3 mg/dL
  Urine Volume: 26 ± 3.61 mL
  Water Intake: 25 ± 2.77 mL
[4]; Day 28
  Food Intake: 34 ± 0.93 gm
  Mean Body Weight: 279 ± 4.9 gm
  Mean Plasma Glucose: 211 ± 8.6 mg/dL
  Urine Volume: 26 ± 4.43 mL
  Water Intake: 31 ± 3.08 mL
[5]; Day 1
  Percentage Change in plasma insulin: 0%
[5]; Day 7
  Percentage Change in plasma insulin: −42%
[5]; Day 14
  Percentage Change in plasma insulin: −39%
[5]; Day 21
  Percentage Change in plasma insulin: −37%
[5]; Day 28
  Percentage Change in plasma insulin: −34%
